Measurements published in PubChem BioAssay (NCI).
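Each compound was tested at five concentrations against cells in 96-well plates for 48 hours. GI50 marks 50% less growth. The concentration for full growth arrest is given as TGI.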

What was measured:
Experiment in all cases: NCI anticancer screen, dose series, 48 h
MCF7 breast = tested on: MCF7 breast
HCT-15 colon = tested on: HCT-15 colon
BT-549 breast = tested on: BT-549 breast
HOP-92 NSCLC = tested on: HOP-92 NSCLC
UACC-62 melanoma = tested on: UACC-62 melanoma
KM12 colon = tested on: KM12 colon
RPMI-8226 leukemia = tested on: RPMI-8226 leukemia
NCI/ADR-RES ovarian = tested on: NCI/ADR-RES ovarian
DU-145 prostate = tested on: DU-145 prostate
SF-295 CNS = tested on: SF-295 CNS
COLO 205 colon = tested on: COLO 205 colon
CAKI-1 renal = tested on: CAKI-1 renal
T-47D breast = tested on: T-47D breast
A549 NSCLC = tested on: A549 NSCLC
SK-OV-3 ovarian = tested on: SK-OV-3 ovarian
HT29 colon = tested on: HT29 colon
SK-MEL-28 melanoma = tested on: SK-MEL-28 melanoma
SK-MEL-2 melanoma = tested on: SK-MEL-2 melanoma
OVCAR-4 ovarian = tested on: OVCAR-4 ovarian
MDA-MB-435 = tested on: MDA-MB-435
NCI-H23 lung = tested on: NCI-H23 lung
MALME-3M melanoma = tested on: MALME-3M melanoma
SW-620 colon = tested on: SW-620 colon
SK-MEL-5 melanoma = tested on: SK-MEL-5 melanoma
LOX IMVI melanoma = tested on: LOX IMVI melanoma
PC-3 prostate = tested on: PC-3 prostate
A498 renal = tested on: A498 renal
HL-60(TB) leukemia = tested on: HL-60(TB) leukemia
TK-10 renal = tested on: TK-10 renal
M14 melanoma = tested on: M14 melanoma
UACC-257 melanoma = tested on: UACC-257 melanoma
SNB-75 CNS = tested on: SNB-75 CNS
HCC-2998 colon = tested on: HCC-2998 colon
NCI-H226 lung = tested on: NCI-H226 lung
K-562 leukemia = tested on: K-562 leukemia
OVCAR-3 ovarian = tested on: OVCAR-3 ovarian
HS 578T breast = tested on: HS 578T breast
EKVX NSCLC = tested on: EKVX NSCLC
NCI-H460 lung = tested on: NCI-H460 lung
MDA-MB-231 breast = tested on: MDA-MB-231 breast
U251 CNS = tested on: U251 CNS
NCI-H522 lung = tested on: NCI-H522 lung
SN12C renal = tested on: SN12C renal
SF-539 CNS = tested on: SF-539 CNS
UO-31 renal = tested on: UO-31 renal
SNB-19 CNS = tested on: SNB-19 CNS
HOP-62 NSCLC = tested on: HOP-62 NSCLC
ACHN renal = tested on: ACHN renal
HCT-116 colon = tested on: HCT-116 colon
OVCAR-5 ovarian = tested on: OVCAR-5 ovarian
MOLT-4 leukemia = tested on: MOLT-4 leukemia
OVCAR-8 ovarian = tested on: OVCAR-8 ovarian
786-0 renal = tested on: 786-0 renal
SF-268 CNS = tested on: SF-268 CNS

COc1ccc(C(=O)/C=C/c2c(OC)cc(OC)cc2OC)c(OC)c1
GI50 (MCF7 breast): 3.85 µM
TGI (MCF7 breast): > 100 µM
GI50 (HCT-15 colon): 2.42 µM
TGI (HCT-15 colon): > 100 µM
GI50 (BT-549 breast): 83.8 µM
TGI (BT-549 breast): > 100 µM
GI50 (HOP-92 NSCLC): 16.6 µM
TGI (HOP-92 NSCLC): 95.2 µM
GI50 (UACC-62 melanoma): 1.32 µM
TGI (UACC-62 melanoma): > 100 µM
GI50 (KM12 colon): 1.21 µM
TGI (KM12 colon): > 100 µM
GI50 (RPMI-8226 leukemia): 5.8 µM
TGI (RPMI-8226 leukemia): > 100 µM
GI50 (NCI/ADR-RES ovarian): 0.78 µM
TGI (NCI/ADR-RES ovarian): > 100 µM
GI50 (DU-145 prostate): 3.21 µM
TGI (DU-145 prostate): > 100 µM
GI50 (SF-295 CNS): 0.987 µM
TGI (SF-295 CNS): 5.31 µM
GI50 (COLO 205 colon): 3.38 µM
TGI (COLO 205 colon): > 100 µM
GI50 (CAKI-1 renal): 1.44 µM
TGI (CAKI-1 renal): > 100 µM
GI50 (T-47D breast): 16.8 µM
TGI (T-47D breast): > 100 µM
GI50 (A549 NSCLC): 5.36 µM
TGI (A549 NSCLC): > 100 µM
GI50 (SK-OV-3 ovarian): 27.9 µM
TGI (SK-OV-3 ovarian): > 100 µM
GI50 (HT29 colon): 0.881 µM
TGI (HT29 colon): > 100 µM
GI50 (SK-MEL-28 melanoma): > 100 µM
TGI (SK-MEL-28 melanoma): > 100 µM
GI50 (SK-MEL-2 melanoma): 5.52 µM
TGI (SK-MEL-2 melanoma): > 100 µM
GI50 (OVCAR-4 ovarian): > 100 µM
TGI (OVCAR-4 ovarian): > 100 µM
GI50 (MDA-MB-435): 0.275 µM
TGI (MDA-MB-435): 0.947 µM
GI50 (NCI-H23 lung): 3.09 µM
TGI (NCI-H23 lung): > 100 µM
GI50 (MALME-3M melanoma): 7.44 µM
TGI (MALME-3M melanoma): > 100 µM
GI50 (SW-620 colon): 0.911 µM
TGI (SW-620 colon): > 100 µM
GI50 (SK-MEL-5 melanoma): 1.51 µM
TGI (SK-MEL-5 melanoma): > 100 µM
GI50 (LOX IMVI melanoma): 3.7 µM
TGI (LOX IMVI melanoma): > 100 µM
GI50 (PC-3 prostate): 4.6 µM
TGI (PC-3 prostate): > 100 µM
GI50 (A498 renal): 2.23 µM
TGI (A498 renal): 8.87 µM
GI50 (HL-60(TB) leukemia): 3.64 µM
TGI (HL-60(TB) leukemia): > 100 µM
GI50 (TK-10 renal): 36.6 µM
TGI (TK-10 renal): > 100 µM
GI50 (M14 melanoma): 2.59 µM
TGI (M14 melanoma): > 100 µM
GI50 (UACC-257 melanoma): 36.6 µM
TGI (UACC-257 melanoma): > 100 µM
GI50 (SNB-75 CNS): 3.26 µM
TGI (SNB-75 CNS): > 100 µM
GI50 (HCC-2998 colon): 2.51 µM
TGI (HCC-2998 colon): > 100 µM
GI50 (NCI-H226 lung): 21.3 µM
TGI (NCI-H226 lung): > 100 µM
GI50 (K-562 leukemia): 0.853 µM
TGI (K-562 leukemia): > 100 µM
GI50 (OVCAR-3 ovarian): 1.46 µM
TGI (OVCAR-3 ovarian): 8.37 µM
GI50 (HS 578T breast): 5.23 µM
TGI (HS 578T breast): > 100 µM
GI50 (EKVX NSCLC): 4.2 µM
TGI (EKVX NSCLC): > 100 µM
GI50 (NCI-H460 lung): 2.77 µM
TGI (NCI-H460 lung): > 100 µM
GI50 (MDA-MB-231 breast): 5.76 µM
TGI (MDA-MB-231 breast): > 100 µM
GI50 (U251 CNS): 3.95 µM
TGI (U251 CNS): > 100 µM
GI50 (NCI-H522 lung): 2.47 µM
TGI (NCI-H522 lung): > 100 µM
GI50 (SN12C renal): 7.24 µM
TGI (SN12C renal): > 100 µM
GI50 (SF-539 CNS): 2.7 µM
TGI (SF-539 CNS): > 100 µM
GI50 (UO-31 renal): > 100 µM
TGI (UO-31 renal): > 100 µM
GI50 (SNB-19 CNS): 8.37 µM
TGI (SNB-19 CNS): > 100 µM
GI50 (HOP-62 NSCLC): 11.8 µM
TGI (HOP-62 NSCLC): > 100 µM
GI50 (ACHN renal): 21.5 µM
TGI (ACHN renal): > 100 µM
GI50 (HCT-116 colon): 3.31 µM
TGI (HCT-116 colon): > 100 µM
GI50 (OVCAR-5 ovarian): > 100 µM
TGI (OVCAR-5 ovarian): > 100 µM
GI50 (MOLT-4 leukemia): > 100 µM
TGI (MOLT-4 leukemia): > 100 µM
GI50 (OVCAR-8 ovarian): 4.91 µM
TGI (OVCAR-8 ovarian): > 100 µM
GI50 (786-0 renal): 15.4 µM
TGI (786-0 renal): > 100 µM
GI50 (SF-268 CNS): 7.33 µM
TGI (SF-268 CNS): > 100 µM
